This is an account of results in ChEMBL document CHEMBL3286285, “A novel 2-oxoindolinylidene inhibitor of bacterial MurD ligase: Enzyme kinetics, protein-inhibitor binding by NMR and a molecular dynamics study” (Eur J Med Chem, 2014).

Assay [1] addresses T1, UDP-N-acetylmuramoylalanine--D-glutamate ligase (Escherichia coli K-12, UniProt P14900).
T1 sequence (P14900 whole entry): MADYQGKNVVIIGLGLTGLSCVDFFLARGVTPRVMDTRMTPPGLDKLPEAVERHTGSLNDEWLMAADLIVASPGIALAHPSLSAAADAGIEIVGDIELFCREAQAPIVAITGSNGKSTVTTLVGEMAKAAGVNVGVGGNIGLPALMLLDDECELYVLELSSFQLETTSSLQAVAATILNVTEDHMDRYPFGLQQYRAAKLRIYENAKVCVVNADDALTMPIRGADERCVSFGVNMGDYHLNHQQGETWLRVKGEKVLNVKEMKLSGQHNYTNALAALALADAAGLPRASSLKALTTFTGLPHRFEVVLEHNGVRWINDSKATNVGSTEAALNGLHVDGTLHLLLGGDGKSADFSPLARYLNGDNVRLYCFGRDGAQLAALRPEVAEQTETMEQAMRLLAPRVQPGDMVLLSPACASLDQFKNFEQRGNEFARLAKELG
As to the kind of experiment: Binding affinity to 6x His-tagged and 15N/13C-labeled Escherichia coli MurD ligase measured at NMR signal 4 by 1H/13C-HSQC 2D NMR spectroscopy.

In assay [2] the target is T1, UDP-N-acetylmuramoylalanine--D-glutamate ligase. As to the kind of experiment: Binding affinity to 6x His-tagged and 15N/13C-labeled Escherichia coli MurD ligase measured at NMR signal 123 by 1H/13C-HSQC 2D NMR spectroscopy.
Assay [3] shares this target. The assay can be described thus: Binding affinity to 6x His-tagged and 15N/13C-labeled Escherichia coli MurD ligase measured at NMR signal 9 by 1H/13C-HSQC 2D NMR spectroscopy.
Assay [4] has the same target. The assay can be described thus: Binding affinity to 6x His-tagged and 15N/13C-labeled Escherichia coli MurD ligase measured at NMR signal 13 by 1H/13C-HSQC 2D NMR spectroscopy.
The target is the same in assay [5]. The assay can be described thus: Binding affinity to 6x His-tagged and 15N/13C-labeled Escherichia coli MurD ligase measured at NMR signal 56 by 1H/13C-HSQC 2D NMR spectroscopy.
Another assay has as its system Streptococcus pneumoniae. The assay can be described thus: Antibacterial activity against Streptococcus pneumoniae ATCC 49619 by broth microdilution method. The format is functional. For orientation: Broth dilution looks for growth in wells or tubes with falling amounts of substance.
Assay [6] has as its system Haemophilus influenzae. As to the kind of experiment: Antibacterial activity against Haemophilus influenzae Lek 93 by broth microdilution method. The format is functional.
Assay [7] concerns the target T1, UDP-N-acetylmuramoylalanine--D-glutamate ligase. The assay can be described thus: Competitive inhibition of Escherichia coli MurD ligase activity using UDP-N-acetylmuramyl-L-alanine as a substrate.
Assay [8] deals with Escherichia coli. The assay can be described thus: Antibacterial activity against Escherichia coli ATCC 25922 by broth microdilution method. It counts as functional.
Assay [9] has as its system Escherichia coli. The assay can be described thus: Antibacterial activity against Escherichia coli ATCC 35218 by broth microdilution method. It counts as functional.
Assay [10] has as its system Haemophilus influenzae. The assay can be described thus: Antibacterial activity against Haemophilus influenzae ATCC 49247 by broth microdilution method. It counts as functional.
For another assay, the system named is Staphylococcus aureus. As to the kind of experiment: Antibacterial activity against Staphylococcus aureus ATCC 25923 by broth microdilution method. The format is functional.
The test system of a further assay is Streptococcus pyogenes. As to the kind of experiment: Antibacterial activity against Streptococcus pyogenes ATCC 19615 by broth microdilution method. It counts as functional.
The next assay relates to Enterococcus faecalis. The assay can be described thus: Antibacterial activity against Enterococcus faecalis ATCC 29212 by broth microdilution method. It counts as functional.
Assay [11] has as its target T2, UDP-N-acetylmuramoylalanine--D-glutamate ligase (Escherichia coli K-12) (UniProt P14900).
T2 sequence (whole entry): T1 sequence (P14900 whole entry)
As to the kind of experiment: Binding affinity to Escherichia coli MurD ligase by saturation transfer difference NMR spectroscopy.

For assay [12], the target named is T2, UDP-N-acetylmuramoylalanine--D-glutamate ligase (Escherichia coli K-12). As to the kind of experiment: Binding affinity to Escherichia coli MurD ligase by transferred NOESY NMR spectroscopy.
The target of assay [13] is T1, UDP-N-acetylmuramoylalanine--D-glutamate ligase. As to the kind of experiment: Binding affinity to 6x His-tagged and 15N/13C-labeled Escherichia coli MurD ligase by 1H/13C-HSQC 2D NMR spectroscopy.
Assay [14] shares this target. The assay can be described thus: Binding affinity to 6x His-tagged and 15N/13C-labeled Escherichia coli MurD ligase measured at NMR signal 43 by 1H/13C-HSQC 2D NMR spectroscopy.
Assay [15] has the same target. As to the kind of experiment: Binding affinity to 6x His-tagged and 15N/13C-labeled Escherichia coli MurD ligase measured at NMR signal 71 by 1H/13C-HSQC 2D NMR spectroscopy.

SMILES strings stand for the structures. In brackets after ≈: the same amount, converted by molar mass. Activity calls are given as the source filed them. No cut-off for these calls is given here.

As usually defined, the Kd is the concentration at which binding is half-saturated. A high value points to lower affinity. Turning to `CCCCOc1ccc2cc(S(=O)(=O)N[C@H](CCC(=O)O)C(=O)O)ccc2c1`, the Kd came out at 210 µM in assay [1] and 120 µM in [2].
Turning to `N#Cc1ccc(COc2ccc3cc(S(=O)(=O)N[C@H](CCC(=O)O)C(=O)O)ccc3c2)c(F)c1`, the Kd in assay [3] was 2.2 µM; in assay [4] it was 7 µM; in [5], 5.5 µM.
As a reminder, the Ki is the equilibrium dissociation constant of an inhibitor or competing ligand from its target. The low end stands for higher affinity, the high end for lower affinity. For `O=C1Nc2ccc([N+](=O)[O-])cc2/C1=C1/SC(=S)N(NC(=O)c2cccnc2)C1=O`, the MIC is > 128 µg/mL against Streptococcus pneumoniae; > 128 µg/mL against Haemophilus influenzae [6]; > 128 µg/mL against Escherichia coli [8]; > 128 µg/mL with Escherichia coli [9]; 128 µg/mL (≈ 299 µM) with Haemophilus influenzae [10]; > 128 µg/mL with Staphylococcus aureus. Moreover, the figures for the MIC in the assay on Streptococcus pyogenes and in the assay with Enterococcus faecalis were > 128 µg/mL and 128 µg/mL (≈ 299 µM), respectively. Besides, the affinity in [7], expressed as Ki, was 115 µM. In addition, the outcome in [11] and in assay [12] was Active. Moreover, the Kd in assay [13] turned out to be 98 µM; in [1] it was 111 µM; in [14], 79 µM; in [15], 106 µM.
